Key:
[1] = molecular target: RAC-gamma serine/threonine-protein kinase (Homo sapiens) (UniProt Q9Y243); test: Inhibition of human AKT3 at 18.6 nM by HotSpot assay relative to control
[2] = molecular target: Calcium/calmodulin-dependent protein kinase type 1 (Homo sapiens) (UniProt Q14012); test: Inhibition of human CAMK1a at 18.6 nM by HotSpot assay relative to control
[3] = molecular target: CDK9/cyclin T1 (Homo sapiens) (UniProt O60563+P50750); test: Inhibition of human CDK9/cyclin T1 at 18.6 nM by HotSpot assay relative to control; format: protein-complex assay
[4] = molecular target: T1, Ephrin type-A receptor 1 (Homo sapiens) (UniProt P21709); test: Inhibition of human EPHA1 at 18.6 nM by HotSpot assay relative to control
T1 sequence (whole entry): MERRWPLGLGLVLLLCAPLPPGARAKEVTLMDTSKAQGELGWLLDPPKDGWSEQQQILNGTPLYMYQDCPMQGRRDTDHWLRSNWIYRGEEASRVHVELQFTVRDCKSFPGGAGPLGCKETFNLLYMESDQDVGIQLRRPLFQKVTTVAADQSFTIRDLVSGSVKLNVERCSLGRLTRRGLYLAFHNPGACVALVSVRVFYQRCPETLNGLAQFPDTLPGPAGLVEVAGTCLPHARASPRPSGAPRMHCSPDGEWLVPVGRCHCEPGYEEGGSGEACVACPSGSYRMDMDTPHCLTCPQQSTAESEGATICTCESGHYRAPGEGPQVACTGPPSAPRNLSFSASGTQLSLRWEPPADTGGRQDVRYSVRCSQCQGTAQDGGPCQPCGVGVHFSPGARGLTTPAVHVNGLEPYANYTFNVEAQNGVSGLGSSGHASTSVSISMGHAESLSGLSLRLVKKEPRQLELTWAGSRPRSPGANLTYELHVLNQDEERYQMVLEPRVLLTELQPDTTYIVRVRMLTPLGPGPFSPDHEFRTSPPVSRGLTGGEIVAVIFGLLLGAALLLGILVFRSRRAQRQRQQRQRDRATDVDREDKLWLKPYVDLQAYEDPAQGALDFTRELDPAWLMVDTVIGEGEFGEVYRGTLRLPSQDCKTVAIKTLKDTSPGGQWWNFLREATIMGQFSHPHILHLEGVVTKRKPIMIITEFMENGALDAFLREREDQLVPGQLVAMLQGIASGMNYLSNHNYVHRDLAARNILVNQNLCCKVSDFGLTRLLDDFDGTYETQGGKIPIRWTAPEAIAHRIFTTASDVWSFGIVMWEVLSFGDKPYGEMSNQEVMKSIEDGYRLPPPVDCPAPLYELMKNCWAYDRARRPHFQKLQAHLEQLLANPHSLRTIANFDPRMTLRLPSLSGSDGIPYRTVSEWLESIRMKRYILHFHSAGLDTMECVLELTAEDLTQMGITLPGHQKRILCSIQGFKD

[5] = molecular target: T2, NUAK family SNF1-like kinase 1 (Homo sapiens) (UniProt O60285); test: Inhibition of human ARK5 at 1.82 nM by HotSpot assay relative to control
T2 sequence (whole entry): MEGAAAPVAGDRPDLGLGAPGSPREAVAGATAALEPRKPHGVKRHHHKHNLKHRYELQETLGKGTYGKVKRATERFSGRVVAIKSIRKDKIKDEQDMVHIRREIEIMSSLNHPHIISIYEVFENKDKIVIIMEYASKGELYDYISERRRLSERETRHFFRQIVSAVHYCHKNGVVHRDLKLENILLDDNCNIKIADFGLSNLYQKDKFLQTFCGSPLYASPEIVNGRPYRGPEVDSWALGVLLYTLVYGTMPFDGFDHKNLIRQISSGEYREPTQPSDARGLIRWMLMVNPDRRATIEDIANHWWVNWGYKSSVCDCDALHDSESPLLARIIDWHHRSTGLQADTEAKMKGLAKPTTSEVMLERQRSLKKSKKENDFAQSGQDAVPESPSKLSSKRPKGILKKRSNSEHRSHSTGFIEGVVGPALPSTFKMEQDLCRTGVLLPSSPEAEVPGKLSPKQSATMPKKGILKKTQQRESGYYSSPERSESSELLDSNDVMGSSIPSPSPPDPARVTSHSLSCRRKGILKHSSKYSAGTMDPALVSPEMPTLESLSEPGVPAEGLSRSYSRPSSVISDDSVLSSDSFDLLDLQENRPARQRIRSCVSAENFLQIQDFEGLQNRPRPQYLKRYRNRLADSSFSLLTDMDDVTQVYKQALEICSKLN

[6] = molecular target: Mitogen-activated protein kinase kinase kinase kinase 5 (Homo sapiens) (UniProt Q9Y4K4); test: Inhibition of human KHS at 1.82 nM by HotSpot assay relative to control
Sequence of Mitogen-activated protein kinase kinase kinase kinase 5 (Homo sapiens) (Q9Y4K4 whole entry, looked up, the tested form may be a part): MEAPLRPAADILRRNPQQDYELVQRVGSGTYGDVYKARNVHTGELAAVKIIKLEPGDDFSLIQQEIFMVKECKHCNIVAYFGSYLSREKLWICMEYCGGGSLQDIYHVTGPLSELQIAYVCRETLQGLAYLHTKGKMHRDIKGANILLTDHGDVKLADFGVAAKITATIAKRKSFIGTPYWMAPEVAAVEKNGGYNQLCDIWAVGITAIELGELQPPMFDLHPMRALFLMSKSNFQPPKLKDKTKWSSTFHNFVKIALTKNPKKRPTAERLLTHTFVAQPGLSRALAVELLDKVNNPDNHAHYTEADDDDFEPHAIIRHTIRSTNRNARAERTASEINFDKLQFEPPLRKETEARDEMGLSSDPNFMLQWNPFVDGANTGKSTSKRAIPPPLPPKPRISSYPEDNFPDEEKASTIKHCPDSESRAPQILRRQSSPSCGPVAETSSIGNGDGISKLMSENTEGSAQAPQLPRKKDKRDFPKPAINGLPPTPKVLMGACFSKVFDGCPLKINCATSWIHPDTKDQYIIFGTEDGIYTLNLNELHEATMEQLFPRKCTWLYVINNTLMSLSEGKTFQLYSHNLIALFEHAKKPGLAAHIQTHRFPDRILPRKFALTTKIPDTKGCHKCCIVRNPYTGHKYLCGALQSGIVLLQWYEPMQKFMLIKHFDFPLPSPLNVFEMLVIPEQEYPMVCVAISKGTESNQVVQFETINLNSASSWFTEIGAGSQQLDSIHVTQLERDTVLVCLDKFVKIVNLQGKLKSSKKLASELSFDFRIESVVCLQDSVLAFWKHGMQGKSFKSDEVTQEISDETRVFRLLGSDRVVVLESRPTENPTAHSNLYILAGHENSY

[7] = molecular target: LIM domain kinase 1 (Homo sapiens) (UniProt P53667); test: Inhibition of human LIMK1 at 1.82 nM by HotSpot assay relative to control
Sequence of LIM domain kinase 1 (Homo sapiens) (P53667 whole entry, looked up, the tested form may be a part): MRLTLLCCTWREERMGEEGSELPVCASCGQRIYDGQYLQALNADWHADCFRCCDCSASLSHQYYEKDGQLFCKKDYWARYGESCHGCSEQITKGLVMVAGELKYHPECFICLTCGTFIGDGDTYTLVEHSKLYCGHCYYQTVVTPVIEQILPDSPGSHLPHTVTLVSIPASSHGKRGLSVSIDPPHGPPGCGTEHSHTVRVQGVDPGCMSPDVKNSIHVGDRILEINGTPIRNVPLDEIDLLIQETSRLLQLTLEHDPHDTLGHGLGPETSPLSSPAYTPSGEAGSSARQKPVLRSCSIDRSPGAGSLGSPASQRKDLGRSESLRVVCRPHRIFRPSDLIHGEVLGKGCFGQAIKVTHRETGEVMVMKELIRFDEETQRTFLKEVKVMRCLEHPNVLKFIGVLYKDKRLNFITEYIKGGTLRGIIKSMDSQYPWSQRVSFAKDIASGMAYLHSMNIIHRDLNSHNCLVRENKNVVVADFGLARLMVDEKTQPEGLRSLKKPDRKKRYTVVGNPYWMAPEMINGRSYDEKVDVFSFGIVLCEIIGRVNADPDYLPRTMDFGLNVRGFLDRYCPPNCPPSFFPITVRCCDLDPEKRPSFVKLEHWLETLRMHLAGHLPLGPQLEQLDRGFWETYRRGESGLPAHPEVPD

[8] = molecular target: T3, Muscle, skeletal receptor tyrosine-protein kinase (Homo sapiens) (UniProt O15146); test: Inhibition of human MUSK at 1.82 nM by HotSpot assay relative to control
T3 sequence (whole entry): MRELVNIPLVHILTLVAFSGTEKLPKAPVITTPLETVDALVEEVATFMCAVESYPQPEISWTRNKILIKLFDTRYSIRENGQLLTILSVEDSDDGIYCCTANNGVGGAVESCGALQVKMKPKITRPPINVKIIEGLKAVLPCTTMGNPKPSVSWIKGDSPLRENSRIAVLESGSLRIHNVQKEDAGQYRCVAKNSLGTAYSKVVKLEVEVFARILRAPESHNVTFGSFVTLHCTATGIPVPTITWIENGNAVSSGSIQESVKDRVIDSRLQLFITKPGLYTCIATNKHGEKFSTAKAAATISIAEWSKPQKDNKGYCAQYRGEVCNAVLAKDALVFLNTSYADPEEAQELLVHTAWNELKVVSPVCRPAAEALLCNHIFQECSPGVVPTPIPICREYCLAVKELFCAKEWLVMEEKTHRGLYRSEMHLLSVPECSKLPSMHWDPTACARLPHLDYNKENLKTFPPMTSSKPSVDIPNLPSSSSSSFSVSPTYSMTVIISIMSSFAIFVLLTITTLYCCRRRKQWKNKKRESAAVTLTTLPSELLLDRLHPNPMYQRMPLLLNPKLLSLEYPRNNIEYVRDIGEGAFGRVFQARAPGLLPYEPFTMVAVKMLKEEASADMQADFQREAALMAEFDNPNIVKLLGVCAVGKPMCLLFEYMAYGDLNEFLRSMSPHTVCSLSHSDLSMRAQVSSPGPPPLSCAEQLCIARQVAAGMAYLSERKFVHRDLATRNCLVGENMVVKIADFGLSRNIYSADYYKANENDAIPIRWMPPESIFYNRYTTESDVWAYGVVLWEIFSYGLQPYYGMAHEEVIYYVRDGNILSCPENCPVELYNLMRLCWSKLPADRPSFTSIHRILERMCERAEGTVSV

Sequence of RAC-gamma serine/threonine-protein kinase (Homo sapiens) (Q9Y243 whole entry): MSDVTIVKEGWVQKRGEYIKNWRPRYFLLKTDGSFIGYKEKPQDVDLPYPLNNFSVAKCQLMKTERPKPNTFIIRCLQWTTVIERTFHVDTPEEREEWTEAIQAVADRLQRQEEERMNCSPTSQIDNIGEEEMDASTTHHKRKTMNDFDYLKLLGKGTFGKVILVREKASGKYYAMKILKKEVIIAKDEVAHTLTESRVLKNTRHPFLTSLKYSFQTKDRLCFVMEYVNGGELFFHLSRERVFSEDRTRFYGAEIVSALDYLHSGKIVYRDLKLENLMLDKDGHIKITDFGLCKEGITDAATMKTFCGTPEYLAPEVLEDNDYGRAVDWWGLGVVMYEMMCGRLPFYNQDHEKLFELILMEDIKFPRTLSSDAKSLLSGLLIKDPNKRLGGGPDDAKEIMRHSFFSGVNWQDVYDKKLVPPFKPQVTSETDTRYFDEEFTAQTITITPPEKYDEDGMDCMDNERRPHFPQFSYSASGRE
Sequence of Calcium/calmodulin-dependent protein kinase type 1 (Homo sapiens) (Q14012 whole entry, looked up): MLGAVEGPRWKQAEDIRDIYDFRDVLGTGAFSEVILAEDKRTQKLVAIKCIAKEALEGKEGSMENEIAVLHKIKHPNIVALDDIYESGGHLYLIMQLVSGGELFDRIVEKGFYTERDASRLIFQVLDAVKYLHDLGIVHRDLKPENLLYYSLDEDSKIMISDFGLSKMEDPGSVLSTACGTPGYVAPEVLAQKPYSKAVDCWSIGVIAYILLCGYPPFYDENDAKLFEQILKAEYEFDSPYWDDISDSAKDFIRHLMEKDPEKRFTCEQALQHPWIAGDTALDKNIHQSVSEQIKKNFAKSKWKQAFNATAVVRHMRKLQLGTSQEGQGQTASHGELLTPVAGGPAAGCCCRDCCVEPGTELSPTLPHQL

inhibition [1] | inhibition [2] | inhibition [3] | inhibition [4] | inhibition [5] | inhibition [6] | inhibition [7] | inhibition [8] | Structure (SMILES)
-1.08% | 9.19% | 2.42% | -4.97% | – | – | – | – | C[C@]1(O)C[C@@H](c2nc(-c3ccc4ccc(-c5ccccc5)nc4c3)c3c(N)nccn32)C1
– | – | – | – | 1.78% | -3.57% | -7.35% | -0.39% | C[C@@]1(C(=O)Nc2ccc(F)nc2)CCCN1c1nc(Nc2cc(C3CC3)n[nH]2)c2cccn2n1
